Reference: PubChem BioAssay AID2060912 (Molecular Pharmacology Branch, DTP, NCI, 2025)

Test system: HUVEC/MSC spheroids viability
Assay: Human HUVEC/MSC cell line growth inhibition [KRAS2];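 on viability, T/C: percent of DMSO vehicle control luminescence so 100% = untreated viability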
Settings: for IC50: curve of first compound; for viability, T/C: stronger effect = lower value
In short: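 HUVEC + hMSC stromal spheroids only, no malignant cells; 37 °C, 5% CO2. Drugs singly and in pairs, half-log series down from clinical Cmax (max 10 microM if Cmax undetermined).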

Question: With `CC1COCCN1c1cc(-c2ccnn2C)c2ccnc(-c3ccn[nH]3)c2n1` (stereo unspecified) + C=CC(=O)N1CCN(c2nc(OCC3CCCN3C)nc3c2CCN(c2cccc4cccc(C)c24)C3)CC1CC#N as the compound, how does the IC50 (second compound 0.00949 µM) read?
Answer: 1210 nM

Question: And the IC50 (second compound 0.03 µM)?
Answer: 916 nM

Question: And the IC50 (second compound 0.0949 µM)?
Answer: 635 nM

Question: What about the IC50 (second compound 0.3 µM) of the same compound?
Answer: 661 nM

Question: What about the IC50 (second compound 0.949 µM) of the same compound?
Answer: 362 nM

Question: And the IC50 (second compound 3 µM)?
Answer: > 3000 nM

Question: And the viability, T/C (second compound 0.00949 µM, first compound 0.00949 µM)?
Answer: 79.3%

Question: And the viability, T/C (second compound 0.00949 µM, first compound 0.03 µM)?
Answer: 76.5%

Question: And the viability, T/C (second compound 0.00949 µM, first compound 0.0949 µM)?
Answer: 77%

Question: What about the viability, T/C (second compound 0.00949 µM, first compound 0.3 µM) of the same compound?
Answer: 77%

Question: And the viability, T/C (second compound 0.00949 µM, first compound 0.949 µM)?
Answer: 51.9%

Question: And the viability, T/C (second compound 0.00949 µM, first compound 3 µM)?
Answer: 42.8%

Question: And the viability, T/C (second compound 0.03 µM, first compound 0.00949 µM)?
Answer: 87.7%

Question: And the viability, T/C (second compound 0.03 µM, first compound 0.03 µM)?
Answer: 90.9%

Question: What about the viability, T/C (second compound 0.03 µM, first compound 0.0949 µM) of the same compound?
Answer: 77.6%

Question: And the viability, T/C (second compound 0.03 µM, first compound 0.3 µM)?
Answer: 66.6%

Question: And the viability, T/C (second compound 0.03 µM, first compound 0.949 µM)?
Answer: 49.7%

Question: What about the viability, T/C (second compound 0.03 µM, first compound 3 µM) of the same compound?
Answer: 37.9%

Question: What about the viability, T/C (second compound 0.0949 µM, first compound 0.00949 µM) of the same compound?
Answer: 73.5%

Question: What about the viability, T/C (second compound 0.0949 µM, first compound 0.03 µM) of the same compound?
Answer: 85.3%

Question: What about the viability, T/C (second compound 0.0949 µM, first compound 0.0949 µM) of the same compound?
Answer: 70.8%

Question: What about the viability, T/C (second compound 0.0949 µM, first compound 0.3 µM) of the same compound?
Answer: 69.1%

Question: And the viability, T/C (second compound 0.0949 µM, first compound 0.949 µM)?
Answer: 39.5%

Question: And the viability, T/C (second compound 0.0949 µM, first compound 3 µM)?
Answer: 37.8%

Question: What about the viability, T/C (second compound 0.3 µM, first compound 0.00949 µM) of the same compound?
Answer: 66.8%

Question: And the viability, T/C (second compound 0.3 µM, first compound 0.03 µM)?
Answer: 71.4%

Question: And the viability, T/C (second compound 0.3 µM, first compound 0.0949 µM)?
Answer: 72%

Question: And the viability, T/C (second compound 0.3 µM, first compound 0.3 µM)?
Answer: 62.6%

Question: What about the viability, T/C (second compound 0.3 µM, first compound 0.949 µM) of the same compound?
Answer: 44.2%

Question: What about the viability, T/C (second compound 0.3 µM, first compound 3 µM) of the same compound?
Answer: 34.8%

Question: What about the viability, T/C (second compound 0.949 µM, first compound 0.00949 µM) of the same compound?
Answer: 67.7%

Question: And the viability, T/C (second compound 0.949 µM, first compound 0.03 µM)?
Answer: 65%

Question: And the viability, T/C (second compound 0.949 µM, first compound 0.0949 µM)?
Answer: 68%

Question: And the viability, T/C (second compound 0.949 µM, first compound 0.3 µM)?
Answer: 51.5%

Question: What about the viability, T/C (second compound 0.949 µM, first compound 0.949 µM) of the same compound?
Answer: 45%

Question: And the viability, T/C (second compound 0.949 µM, first compound 3 µM)?
Answer: 40.1%

Question: And the viability, T/C (second compound 3 µM, first compound 0.00949 µM)?
Answer: 81.6%

Question: And the viability, T/C (second compound 3 µM, first compound 0.03 µM)?
Answer: 78.6%

Question: What about the viability, T/C (second compound 3 µM, first compound 0.0949 µM) of the same compound?
Answer: 86%

Question: And the viability, T/C (second compound 3 µM, first compound 0.3 µM)?
Answer: 81.2%

Question: And the viability, T/C (second compound 3 µM, first compound 0.949 µM)?
Answer: 54.5%

Question: And the viability, T/C (second compound 3 µM, first compound 3 µM)?
Answer: 50.4%

Question: Which IC50 (second compound 0.0316 µM) does the source give for `CC1COCCN1c1cc(-c2ccnn2C)c2ccnc(-c3ccn[nH]3)c2n1` (stereo unspecified) + CC1OCC2(CCN(c3cnc(Sc4ccnc(N)c4Cl)c(N)n3)CC2)C1N here?
Answer: > 3000 nM

Question: And the IC50 (second compound 0.1 µM)?
Answer: 2640 nM

Question: What about the IC50 (second compound 0.316 µM) of the same compound?
Answer: 1900 nM

Question: What about the IC50 (second compound 1 µM) of the same compound?
Answer: 2050 nM

Question: And the IC50 (second compound 3.16 µM)?
Answer: 679 nM

Question: And the IC50 (second compound 10 µM)?
Answer: 760 nM

Question: What about the viability, T/C (second compound 0.0316 µM, first compound 0.00949 µM) of the same compound?
Answer: 97.8%

Question: And the viability, T/C (second compound 0.0316 µM, first compound 0.03 µM)?
Answer: 99.4%

Question: And the viability, T/C (second compound 0.0316 µM, first compound 0.0949 µM)?
Answer: 82.6%

Question: And the viability, T/C (second compound 0.0316 µM, first compound 0.3 µM)?
Answer: 72.4%

Question: And the viability, T/C (second compound 0.0316 µM, first compound 0.949 µM)?
Answer: 64.5%

Question: And the viability, T/C (second compound 0.0316 µM, first compound 3 µM)?
Answer: 51.5%

Question: And the viability, T/C (second compound 0.1 µM, first compound 0.00949 µM)?
Answer: 95.8%

Question: And the viability, T/C (second compound 0.1 µM, first compound 0.03 µM)?
Answer: 95.7%

Question: And the viability, T/C (second compound 0.1 µM, first compound 0.0949 µM)?
Answer: 83.4%

Question: And the viability, T/C (second compound 0.1 µM, first compound 0.3 µM)?
Answer: 80.4%

Question: What about the viability, T/C (second compound 0.1 µM, first compound 0.949 µM) of the same compound?
Answer: 62.1%

Question: And the viability, T/C (second compound 0.1 µM, first compound 3 µM)?
Answer: 48.6%

Question: And the viability, T/C (second compound 0.316 µM, first compound 0.00949 µM)?
Answer: 105%

Question: And the viability, T/C (second compound 0.316 µM, first compound 0.03 µM)?
Answer: 101%

Question: What about the viability, T/C (second compound 0.316 µM, first compound 0.0949 µM) of the same compound?
Answer: 78.9%

Question: And the viability, T/C (second compound 0.316 µM, first compound 0.3 µM)?
Answer: 64.3%

Question: And the viability, T/C (second compound 0.316 µM, first compound 0.949 µM)?
Answer: 55.3%

Question: And the viability, T/C (second compound 0.316 µM, first compound 3 µM)?
Answer: 46.4%

Question: And the viability, T/C (second compound 1 µM, first compound 0.00949 µM)?
Answer: 82.6%

Question: What about the viability, T/C (second compound 1 µM, first compound 0.03 µM) of the same compound?
Answer: 94.7%

Question: What about the viability, T/C (second compound 1 µM, first compound 0.0949 µM) of the same compound?
Answer: 78.3%

Question: What about the viability, T/C (second compound 1 µM, first compound 0.3 µM) of the same compound?
Answer: 74.5%

Question: And the viability, T/C (second compound 1 µM, first compound 0.949 µM)?
Answer: 61.6%

Question: What about the viability, T/C (second compound 1 µM, first compound 3 µM) of the same compound?
Answer: 44.4%

Question: And the viability, T/C (second compound 3.16 µM, first compound 0.00949 µM)?
Answer: 84.7%

Question: What about the viability, T/C (second compound 3.16 µM, first compound 0.03 µM) of the same compound?
Answer: 90.5%

Question: And the viability, T/C (second compound 3.16 µM, first compound 0.0949 µM)?
Answer: 69.1%

Question: And the viability, T/C (second compound 3.16 µM, first compound 0.3 µM)?
Answer: 63.7%

Question: What about the viability, T/C (second compound 3.16 µM, first compound 0.949 µM) of the same compound?
Answer: 45%

Question: And the viability, T/C (second compound 3.16 µM, first compound 3 µM)?
Answer: 32.9%

Question: And the viability, T/C (second compound 10 µM, first compound 0.00949 µM)?
Answer: 56.2%

Question: What about the viability, T/C (second compound 10 µM, first compound 0.03 µM) of the same compound?
Answer: 65.5%

Question: What about the viability, T/C (second compound 10 µM, first compound 0.0949 µM) of the same compound?
Answer: 61.7%

Question: And the viability, T/C (second compound 10 µM, first compound 0.3 µM)?
Answer: 58.2%

Question: What about the viability, T/C (second compound 10 µM, first compound 0.949 µM) of the same compound?
Answer: 48%

Question: What about the viability, T/C (second compound 10 µM, first compound 3 µM) of the same compound?
Answer: 24.7%

Question: Which results are given for `CC(C)n1nc(-c2ccc3oc(N)nc3c2)c2c(N)ncnc21` + C=CC(=O)N1CCN(c2nc(OCC3CCCN3C)nc3c2CCN(c2cccc4cccc(C)c24)C3)CC1CC#N?
Answer: IC50 (second compound 0.00949 µM): 6.33 nM; IC50 (second compound 0.03 µM): 6.8 nM; IC50 (second compound 0.0949 µM): 4.34 nM; IC50 (second compound 0.3 µM): 3.35 nM; IC50 (second compound 0.949 µM): 0.512 nM; IC50 (second compound 3 µM): 22.2 nM; viability, T/C (second compound 0.00949 µM, first compound 0.000316 µM): 80.6%; viability, T/C (second compound 0.00949 µM, first compound 0.001 µM): 64.1%; viability, T/C (second compound 0.00949 µM, first compound 0.00316 µM): 56.1%; viability, T/C (second compound 0.00949 µM, first compound 0.01 µM): 43.1%; viability, T/C (second compound 0.00949 µM, first compound 0.0316 µM): 48.3%; viability, T/C (second compound 0.00949 µM, first compound 0.1 µM): 39.8%; viability, T/C (second compound 0.03 µM, first compound 0.000316 µM): 69.5%; viability, T/C (second compound 0.03 µM, first compound 0.001 µM): 65.7%; viability, T/C (second compound 0.03 µM, first compound 0.00316 µM): 44.1%; viability, T/C (second compound 0.03 µM, first compound 0.01 µM): 54.1%; viability, T/C (second compound 0.03 µM, first compound 0.0316 µM): 46.8%; viability, T/C (second compound 0.03 µM, first compound 0.1 µM): 42%; viability, T/C (second compound 0.0949 µM, first compound 0.000316 µM): 80.1%; viability, T/C (second compound 0.0949 µM, first compound 0.001 µM): 64.7%; viability, T/C (second compound 0.0949 µM, first compound 0.00316 µM): 48.4%; viability, T/C (second compound 0.0949 µM, first compound 0.01 µM): 49%; viability, T/C (second compound 0.0949 µM, first compound 0.0316 µM): 41.1%; viability, T/C (second compound 0.0949 µM, first compound 0.1 µM): 40.8%; viability, T/C (second compound 0.3 µM, first compound 0.000316 µM): 59.7%; viability, T/C (second compound 0.3 µM, first compound 0.001 µM): 67.6%; viability, T/C (second compound 0.3 µM, first compound 0.00316 µM): 50.5%; viability, T/C (second compound 0.3 µM, first compound 0.01 µM): 43.5%; viability, T/C (second compound 0.3 µM, first compound 0.0316 µM): 40.5%; viability, T/C (second compound 0.3 µM, first compound 0.1 µM): 36%; viability, T/C (second compound 0.949 µM, first compound 0.000316 µM): 57.5%; viability, T/C (second compound 0.949 µM, first compound 0.001 µM): 47.5%; viability, T/C (second compound 0.949 µM, first compound 0.00316 µM): 42.7%; viability, T/C (second compound 0.949 µM, first compound 0.01 µM): 34.5%; viability, T/C (second compound 0.949 µM, first compound 0.0316 µM): 44.6%; viability, T/C (second compound 0.949 µM, first compound 0.1 µM): 44.3%; viability, T/C (second compound 3 µM, first compound 0.000316 µM): 62.5%; viability, T/C (second compound 3 µM, first compound 0.001 µM): 66.8%; viability, T/C (second compound 3 µM, first compound 0.00316 µM): 54.1%; viability, T/C (second compound 3 µM, first compound 0.01 µM): 58.6%; viability, T/C (second compound 3 µM, first compound 0.0316 µM): 45.3%; viability, T/C (second compound 3 µM, first compound 0.1 µM): 40.7%
